Source: PMC7174758, “Synthesis and Biological Evaluation of HDAC Inhibitors With a Novel Zinc Binding Group” (Frontiers in Chemistry, 2020)

What was measured:
acetyl-histone H3 = test: Western blot, acetylation of histone H3 in Hela cells; type: cell-based, human; settings: 5 μM, reference drug
Experimental: (§1) Afterwards, the Hela cells were collected using centrifugation, and were then lysed by the lysate, which were carried out further centrifugation at 12,000 rpm for 30 min. The protein of supernatant obtained by centrifugation was quantified using the BCA kit (Beijing Solarbio Science & Technology Co., Ltd.), and the protein extracts were mixed with the SDS-PAGE protein loading buffer (Beijing Solarbio Science & Technology Co., Ltd.), which were subject to 100°C water bath for 10 min to sufficiently denaturate. The gel was gelatinized using the SDS Gel Kit (Beijing Solarbio Science & Technology Co., Ltd.) and protein extracts were separated by protein SDS-polyacrylamide gel electrophoresis and then transferred to Immobilon-NC Membrane (Beijing Solarbio Science & Technology Co., Ltd.). After the blocking with 5% non-fat dried milk in TBS for 90 min at room temperature, the membranes were incubated overnight with specific primary antibodies (AFFINITY BIOSCIENCE) at 4°C, which were further incubated with secondary antibodies for 2 h after washing three times with TBST. The chemiluminescence analysis system was applied to label the target protein with a specific primary antibody and the target protein was detected using a specific antibody.

acetyl-α-tubulin = test: Western blot, acetylation of α-tubulin in Hela cells; type: cell-based, human; settings: 5 μM, reference drug
Experimental: as §1

A549 = test: MTT anti-proliferative assay, A549; settings: Homo sapiens, A549, 48 h, read-out: IC50 A549
Experimental: (§2) The antitumor bioactivities of the tittle compounds in vitro were firstly evaluated against four different human tumor cell lines [breast lung cancer (A549), cervical cancer (Hela), liver cancer (HepG2), breast cancer (MCF-7)] via MTT assay, and a normal cell line [human lung fibroblast (WI-38)] was applied to assess the safety of the synthesized compounds. […] In this study, the tested compounds were diluted to the required concentration with culture medium, and growth inhibitory effects against the cell lines of the tittle compounds were determined by MTT colorimetric assay. […] The microplate reader was adopted to record the absorbance at 490 nm for each well of the plates.

Hela = test: MTT anti-proliferative assay, Hela; settings: Homo sapiens, 48 h, read-out: IC50 Hela
Experimental: as §2

WI-38 = test: MTT cytotoxicity assay, normal cell line WI-38; settings: Homo sapiens, WI-38, 48 h, read-out: IC50 WI-38
Experimental: as §2

MCF-7 = test: MTT anti-proliferative assay, MCF-7; settings: Homo sapiens, MCF7, 48 h, read-out: IC50 MCF-7
Experimental: as §2

HepG2 = test: MTT anti-proliferative assay, HepG2; settings: Homo sapiens, HepG2, 48 h, read-out: IC50 HepG2
Experimental: as §2

melting point [°C]	IC50 (A549) [µM]	IC50 (Hela) [µM]	IC50 (MCF-7) [µM]	IC50 (HepG2) [µM]	Structure (SMILES)	acetylation level of histone H3 (acetyl-histone H3)	acetylation level of α-Tubulin (acetyl-α-tubulin)	IC50 (WI-38) [µM]
114.2 to 116.8	39.2 ± 3.88	19.6 ± 3.92	44.8 ± 2.01	74.9 ± 2.05	Cc1ccc(C(=O)NCCCCCC(=O)NCC(C)O)cc1 (centres unmarked) [a6, N-(6-((2-hydroxypropyl)amino)-6-oxohexyl)-4-methylbenzamide]			97.2 ± 6.36
111.2 to 114.5	33.1 ± 0.96	90.4 ± 2.21	94.3 ± 15.3	84.5 ± 1.33	O=C(CCCCCNC(=O)c1ccccc1)NCCO [b1, N-(6-((2-hydroxyethyl)amino)-6-oxohexyl) benzamide]			194 ± 5.32
131.2 to 132.9					O=C(CCCCCNC(=O)c1ccc(F)cc1)NCCO [b2, 4-fluoro-N-(6-((2-hydroxyethyl)amino)-6-oxohexyl) benzamide]			
112.4 to 115.9					O=C(CCCCCNC(=O)c1ccc(Cl)cc1)NCCO [b3, 4-chloro-N-(6-((2-hydroxyethyl)amino)-6-oxohexyl) benzamide]			
115.7 to 118.7					O=C(CCCCCNC(=O)c1ccc(Br)cc1)NCCO [b4, 4-bromo-N-(6-((2-hydroxyethyl)amino)-6-oxohexyl) benzamide]			
150.4 to 150.9	48.3 ± 0.92	61 ± 5.31	64.5 ± 11.1	90.3 ± 8.18	O=C(CCCCCNC(=O)c1ccc(I)cc1)NCCO [b5, N-(6-((2-hydroxyethyl)amino)-6-oxohexyl)-4-iodobenzamide]			130 ± 5.02
	26.9 ± 4.79	59.7 ± 2.67	99.2 ± 1.9	77.2 ± 4.43	Cc1ccc(C(=O)NCCCCCC(=O)NCCO)cc1 [b6, N-(6-((2-hydroxyethyl)amino)-6-oxohexyl)-4-methylbenzamide]			144 ± 8.05
110.1 to 111.8	32.3 ± 3.13	96.8 ± 2.09	83.6 ± 23.2	88 ± 9.39	Cc1cc(C)cc(C(=O)NCCCCCC(=O)NCCO)c1 [b7, N-(6-((2-hydroxyethyl)amino)-6-oxohexyl)-3,5-dimethylbenzamide]			184 ± 7.16
105 to 106.3					O=C(CCCCCNC(=O)c1ccc(C(F)(F)F)cc1)NCCO [b9, N-(6-((2-hydroxyethyl)amino)-6-oxohexyl)-4-(trifluoromethyl) benzamide]			
120.4 to 122.3					CN(C)c1ccc(C(=O)NCCCCCC(=O)NCCO)cc1 [b11, 4-(dimethylamino)-N-(6-((2-hydroxyethyl)amino)-6-oxohexyl) benzamide]			

Further lines, the compound ahead of its results:

Structure (SMILES)	melting point [°C]	IC50 (A549) [µM]	IC50 (Hela) [µM]	IC50 (MCF-7) [µM]	IC50 (HepG2) [µM]	acetylation level of histone H3 (acetyl-histone H3)	acetylation level of α-Tubulin (acetyl-α-tubulin)	IC50 (WI-38) [µM]
O=C(CCCCCCC(=O)Nc1ccccc1)NO [SAHA, suberoylanilide hydroxamic acid, reference compound]						up-regulated	increase	
CC(O)CNC(=O)CCCCCNC(=O)c1ccc(F)cc1 (centres unmarked) [a1, 4-fluoro-N-(6-((2-hydroxypropyl)amino)-6-oxohexyl) benzamide]	99.3 to 100.8							
CC(O)CNC(=O)CCCCCNC(=O)c1ccc(Cl)cc1 (centres unmarked) [a2, 4-chloro-N-(6-((2-hydroxypropyl)amino)-6-oxohexyl) benzamide]	93.9 to 95.7							
CC(O)CNC(=O)CCCCCNC(=O)c1ccccc1Cl (centres unmarked) [a3, 2-chloro-N-(6-((2-hydroxypropyl)amino)-6-oxohexyl) benzamide]	110.2 to 113.6							
CC(O)CNC(=O)CCCCCNC(=O)c1ccc(Br)cc1 (centres unmarked) [a4, 4-bromo-N-(6-((2-hydroxypropyl)amino)-6-oxohexyl) benzamide]	112.4 to 114.7							
CC(O)CNC(=O)CCCCCNC(=O)c1ccc(I)cc1 (centres unmarked) [a5, N-(6-((2-hydroxypropyl)amino)-6-oxohexyl)-4-iodobenzamide]	148.7 to 150.2	45.6 ± 2.81	35.8 ± 2.43	63.2 ± 4.32	68.9 ± 1.95			158 ± 3.16
CC(O)CNC(=O)CCCCCNC(=O)c1ccc([N+](=O)[O-])cc1 (centres unmarked) [a7, N-(6-((2-hydroxypropyl)amino)-6-oxohexyl)-4-nitrobenzamide]	124.3 to 126.1	43.8 ± 4.82	25.8 ± 8.93	58.7 ± 3.86	88.3 ± 8.64			211 ± 4.32
CC(O)CNC(=O)CCCCCNC(=O)c1ccc(C(F)(F)F)cc1 (centres unmarked) [a9, N-(6-((2-hydroxypropyl)amino)-6-oxohexyl)-4-(trifluoromethyl) benzamide]	106.3 to 108.1							
CC(O)CNC(=O)CCCCCNC(=O)c1ccc(-c2ccccc2)cc1 (centres unmarked) [a10, N-(6-((2-hydroxypropyl)amino)-6-oxohexyl)-[1, 1’-biphenyl]-4-carboxamide]	140.3 to 142.6	19.8 ± 2.11	38.4 ± 1.01	48.4 ± 2.21	26.8 ± 3.22			126 ± 7.83
CC(O)CNC(=O)CCCCCNC(=O)c1ccc2ccccc2c1 (centres unmarked) [a11, N-(6-((2-hydroxypropyl)amino)-6-oxohexyl)-2-naphthamide]	111.6 to 113.6	26.6 ± 2.81	21.8 ± 2.42	38.4 ± 2.12	29.2 ± 3.22			109 ± 4.63
CC(O)CNC(=O)CCCCCNC(=O)c1ccc2c(c1)OCO2 (centres unmarked) [a12, N-(6-((2-hydroxypropyl)amino)-6-oxohexyl) benzo [d][1,3] dioxole-5-carboxamide]	123.6 to 125.3	28.4 ± 2.01	35.6 ± 0.89	44.6 ± 4.62	37.6 ± 2.89			147 ± 3.82
O=C(CCCCCNC(=O)c1ccc2c(c1)OCO2)NCCO [b10, N-(6-((2-hydroxyethyl)amino)-6-oxohexyl) benzo[d][1,3] dioxole-5-carboxamide]	94.5 to 96.7	28.2 ± 0.87	38.1 ± 1.28	93.2 ± 3.53	33.9 ± 2.71			193 ± 6.53
O=C(CCCCCNC(=O)c1ccc2ccccc2c1)NCCO [b12, N-(6-((2-hydroxyethyl)amino)-6-oxohexyl)-2-naphthamide]	115.1 to 117.8	33.4 ± 2.12	76.4 ± 6.78	98.7 ± 7.67	37.6 ± 6.14			161 ± 8.64
